Measurements: patent US12030878B2 (BRISTOL-MYERS SQUIBB COMPANY, priority 2017, dated 2024)

Columns and labels:
Type in all cases: cell-based
[1] = molecular target: T1, human TLR7 (Homo sapiens, UniProt Q9NYK1); assay: TLR7 inhibition reporter assay (HEK-Blue SEAP); settings: HEK-Blue cells overexpressing human TLR7, stimulated with gardiquimod 7.5 μM, 22 hour incubation
T1 construct: host or cells: HEK-Blue cells
T1 sequence (Q9NYK1 27-1049): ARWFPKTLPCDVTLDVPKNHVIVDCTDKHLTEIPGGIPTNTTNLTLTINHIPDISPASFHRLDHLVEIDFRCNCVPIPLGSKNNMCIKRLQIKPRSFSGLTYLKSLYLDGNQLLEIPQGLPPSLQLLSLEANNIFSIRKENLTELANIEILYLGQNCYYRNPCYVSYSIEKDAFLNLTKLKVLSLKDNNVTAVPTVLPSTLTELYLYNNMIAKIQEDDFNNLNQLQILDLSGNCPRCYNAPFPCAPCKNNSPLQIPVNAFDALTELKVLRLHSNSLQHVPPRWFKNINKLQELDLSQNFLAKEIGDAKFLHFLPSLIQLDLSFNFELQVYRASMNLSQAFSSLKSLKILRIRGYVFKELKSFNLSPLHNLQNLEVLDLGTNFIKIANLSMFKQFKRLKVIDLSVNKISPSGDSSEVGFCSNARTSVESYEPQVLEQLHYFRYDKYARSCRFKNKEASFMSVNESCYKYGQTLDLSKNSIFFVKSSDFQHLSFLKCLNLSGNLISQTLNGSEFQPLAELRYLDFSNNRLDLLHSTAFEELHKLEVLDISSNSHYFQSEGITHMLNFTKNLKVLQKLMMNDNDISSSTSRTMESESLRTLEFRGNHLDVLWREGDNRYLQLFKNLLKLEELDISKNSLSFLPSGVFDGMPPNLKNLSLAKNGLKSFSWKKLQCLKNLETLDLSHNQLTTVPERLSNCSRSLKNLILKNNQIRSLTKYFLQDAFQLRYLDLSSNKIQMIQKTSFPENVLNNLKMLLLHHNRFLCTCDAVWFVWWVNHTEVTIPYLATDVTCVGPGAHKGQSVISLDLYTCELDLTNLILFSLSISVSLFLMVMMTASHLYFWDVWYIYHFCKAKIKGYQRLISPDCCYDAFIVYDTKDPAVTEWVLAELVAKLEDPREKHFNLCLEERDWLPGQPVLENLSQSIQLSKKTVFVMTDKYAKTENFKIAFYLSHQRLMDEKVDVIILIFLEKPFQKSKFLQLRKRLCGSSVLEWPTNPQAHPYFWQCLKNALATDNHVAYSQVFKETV
Method in brief: (§1)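 SEAP read-out via HEK-Blue Detection medium after 22 h at 37 °C; percent inhibition relative to agonist-plus-DMSO and known-inhibitor wells. Agonists: TLR7 gardiquimod 7.5 μM, TLR8 R848 15.9 μM, TLR9 ODN2006 5 nM. Dose range 0.05 nM–50 μM, 30 min compound pre-treatment at RT.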

[2] = molecular target: T2, human TLR8 (Homo sapiens, UniProt Q9NR97); assay: TLR8 inhibition reporter assay (HEK-Blue SEAP); settings: HEK-Blue cells overexpressing human TLR8, stimulated with R848 15.9 μM, 22 hour incubation
T2 construct: host or cells: HEK-Blue cells
T2 sequence (Q9NR97 27-1041): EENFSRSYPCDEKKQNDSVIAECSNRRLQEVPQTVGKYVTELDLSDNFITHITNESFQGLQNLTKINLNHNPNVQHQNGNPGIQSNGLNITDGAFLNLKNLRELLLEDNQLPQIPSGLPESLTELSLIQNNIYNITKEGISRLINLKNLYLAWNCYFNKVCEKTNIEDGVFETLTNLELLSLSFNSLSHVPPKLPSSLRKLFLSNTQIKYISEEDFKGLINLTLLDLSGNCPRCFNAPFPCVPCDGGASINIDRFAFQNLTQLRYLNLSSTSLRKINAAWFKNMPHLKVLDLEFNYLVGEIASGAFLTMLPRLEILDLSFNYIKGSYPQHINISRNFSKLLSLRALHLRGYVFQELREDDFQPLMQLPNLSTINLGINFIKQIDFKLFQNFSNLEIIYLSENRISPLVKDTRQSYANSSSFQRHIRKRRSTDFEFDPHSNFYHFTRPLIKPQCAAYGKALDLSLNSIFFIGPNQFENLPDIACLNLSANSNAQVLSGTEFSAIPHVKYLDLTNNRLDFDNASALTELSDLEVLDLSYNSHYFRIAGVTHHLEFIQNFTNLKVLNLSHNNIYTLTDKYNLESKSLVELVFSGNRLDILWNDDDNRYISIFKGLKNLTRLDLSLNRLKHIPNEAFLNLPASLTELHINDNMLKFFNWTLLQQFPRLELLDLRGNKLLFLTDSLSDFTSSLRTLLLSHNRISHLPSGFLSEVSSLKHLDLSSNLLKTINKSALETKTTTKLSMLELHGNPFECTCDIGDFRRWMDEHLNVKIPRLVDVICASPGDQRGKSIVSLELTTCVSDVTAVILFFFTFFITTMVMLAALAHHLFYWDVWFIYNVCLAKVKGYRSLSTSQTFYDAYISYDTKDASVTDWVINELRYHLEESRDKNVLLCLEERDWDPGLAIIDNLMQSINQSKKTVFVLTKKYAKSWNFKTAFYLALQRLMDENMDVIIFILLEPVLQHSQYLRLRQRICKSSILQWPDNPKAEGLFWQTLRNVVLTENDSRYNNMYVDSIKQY
Method in brief: as §1

[3] = molecular target: T3, human TLR9 (Homo sapiens, UniProt Q9NR96); assay: TLR9 inhibition reporter assay (HEK-Blue SEAP); settings: HEK-Blue cells overexpressing human TLR9, stimulated with ODN2006 5 nM, 22 hour incubation
T3 construct: host or cells: HEK-Blue cells
T3 sequence (Q9NR96 26-1032): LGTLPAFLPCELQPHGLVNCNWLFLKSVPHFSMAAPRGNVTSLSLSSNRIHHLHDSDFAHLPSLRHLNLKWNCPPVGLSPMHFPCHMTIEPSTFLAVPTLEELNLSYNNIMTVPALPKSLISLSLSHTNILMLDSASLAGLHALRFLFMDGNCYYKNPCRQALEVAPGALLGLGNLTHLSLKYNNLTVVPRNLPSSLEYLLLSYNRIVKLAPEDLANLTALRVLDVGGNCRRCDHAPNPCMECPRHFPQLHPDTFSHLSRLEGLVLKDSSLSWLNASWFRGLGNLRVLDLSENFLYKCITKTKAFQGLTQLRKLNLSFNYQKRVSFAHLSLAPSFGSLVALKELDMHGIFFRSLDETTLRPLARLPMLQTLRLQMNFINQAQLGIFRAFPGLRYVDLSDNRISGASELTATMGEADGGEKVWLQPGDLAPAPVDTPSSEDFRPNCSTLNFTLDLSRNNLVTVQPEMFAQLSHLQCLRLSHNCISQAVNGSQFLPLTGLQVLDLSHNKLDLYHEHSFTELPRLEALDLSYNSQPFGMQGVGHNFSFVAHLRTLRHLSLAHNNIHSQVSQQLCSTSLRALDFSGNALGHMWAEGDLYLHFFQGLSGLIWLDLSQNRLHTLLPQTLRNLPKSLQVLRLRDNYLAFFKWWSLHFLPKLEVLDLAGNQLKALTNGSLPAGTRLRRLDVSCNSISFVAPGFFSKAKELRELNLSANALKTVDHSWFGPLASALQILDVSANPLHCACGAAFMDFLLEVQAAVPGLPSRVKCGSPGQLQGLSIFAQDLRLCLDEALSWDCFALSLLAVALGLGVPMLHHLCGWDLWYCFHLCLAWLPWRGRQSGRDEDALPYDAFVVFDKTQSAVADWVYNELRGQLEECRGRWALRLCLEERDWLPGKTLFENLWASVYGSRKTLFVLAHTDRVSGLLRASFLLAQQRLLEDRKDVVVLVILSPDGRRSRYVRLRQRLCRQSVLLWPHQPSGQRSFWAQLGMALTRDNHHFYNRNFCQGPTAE
Method in brief: as §1

IC50 [1]	IC50 [2]	IC50 [3]	SMILES
778 nM	731 nM	> 50000 nM	Cc1cc(-c2[nH]c3ccc(OCC(=O)NCCC(C)(C)O)cc3c2C(C)C)ccn1 [Example 155, N-(3-hydroxy-3-methylbutyl)-2-((3-isopropyl-2-(2-methylpyridin-4-yl)-1H-indol-5-yl)oxy)acetamide]
917 nM	176 nM	296 nM	Cc1cc(-c2[nH]c3ccc(OCC(=O)N4CCC5(CCNCC5)C4)cc3c2C(C)C)ccn1 [Example 144, 2-((3-isopropyl-2-(2-methylpyridin-4-yl)-1H-indol-5-yl)oxy)-1-(2,8-diazaspiro[4.5]decan-2-yl)ethan-1-one]
113 nM	13.7 nM	1460 nM	COCCN1CCC(COc2ccc3[nH]c(-c4ccnc(C)c4)c(C(C)C)c3c2)C1 (stereo not drawn) [Example 194, 3-isopropyl-5-((1-(2-methoxyethyl)pyrrolidin-3-yl)methoxy)-2-(2-methylpyridin-4-yl)-1H-indole]
2.8 nM	2.6 nM	502 nM	Cc1cc(-c2[nH]c3ccc(OCC4CCN(C)CC4)cc3c2C(C)C)cc(C)n1 [Example 33, 2-(2,6-dimethylpyridin-4-yl)-3-isopropyl-5-((1-methylpiperidin-4-yl)methoxy)-1H-indole]
115 nM	14 nM	11500 nM	Cc1cc(-c2[nH]c3ccc(OCC4CCN(CC(C)(C)O)CC4)cc3c2C(C)C)cn(C)c1=O [Example 25, 5-(5-((1-(2-hydroxy-2-methylpropyl)piperidin-4-yl)methoxy)-3-isopropyl-1H-indol-2-yl)-1,3-dimethylpyridin-2(1H)-one]
2.4 nM	1.6 nM	5550 nM	Cc1cc(-c2[nH]c3ccc(OCC4CCN(C)CC4)cc3c2C(C)C)cn(C)c1=O [Example 34, 5-(3-isopropyl-5-((1-methylpiperidin-4-yl)methoxy)-1H-indol-2-yl)-1,3-dimethylpyridin-2(1H)-one]
3.6 nM	1.1 nM	518 nM	Cc1cc(-c2[nH]c3ccc(OC4CCN(CC(C)(C)O)CC4)cc3c2C(C)C)cc(C)n1 [Example 21, 1-(4-((2-(2,6-dimethylpyridin-4-yl)-3-isopropyl-1H-indol-5-yl)oxy)piperidin-1-yl)-2-methylpropan-2-ol]
1.4 nM	7.6 nM	6690 nM	CNC(=O)CN1CCC(COc2ccc3[nH]c(-c4cc(C)c5ncnn5c4)c(C(C)C)c3c2)CC1 [Example 113, 2-(4-(((3-isopropyl-2-(8-methyl-[1,2,4]triazolo[1,5-a]pyridin-6-yl)-1H-indol-5-yl)oxy)methyl)piperidin-1-yl)-N-methylacetamide]
2.9 nM	1 nM	530 nM	Cc1cc(-c2[nH]c3ccc(OC4CCN(C(C)C)CC4)cc3c2C(C)C)cc(C)n1 [Example 31, 2-(2,6-dimethylpyridin-4-yl)-3-isopropyl-5-((1-isopropylpiperidin-4-yl)oxy)-1H-indole]
899 nM	1890 nM	> 50000 nM	COc1ccc(-c2[nH]c3ccc(OCC(=O)NC[C@@H](F)C(C)(C)O)cc3c2C(C)C)cc1OC [Example 154, (R)-2-((2-(3,4-dimethoxyphenyl)-3-isopropyl-1H-indol-5-yl)oxy)-N-(2-fluoro-3-hydroxy-3-methylbutyl) acetamide]
9.6 nM	4.4 nM	557 nM	Cc1cc(-c2[nH]c3ccc(OCC4CCCN(CC(C)(C)O)C4)cc3c2C(C)C)cc(C)n1 (stereo not drawn) [Example 23, 1-(3-(((2-(2,6-dimethylpyridin-4-yl)-3-isopropyl-1H-indol-5-yl)oxy)methyl)piperidin-1-yl)-2-methylpropan-2-ol]
4.6 nM	57.8 nM	2110 nM	Cc1c(-c2[nH]c3ccc(OCC4CCN(C(=O)CN(C)C)CC4)cc3c2C(C)C)cn2cnnc2c1C [Example 106, 1-(4-(((2-(7,8-dimethyl-[1,2,4]triazolo[4,3-a]pyridin-6-yl)-3-isopropyl-1H-indol-5-yl)oxy)methyl)piperidin-1-yl)-2-(dimethylamino)ethan-1-one]
